From patent US20240335420A1, “N-ACYLHYDRAZONE COMPOUNDS CAPABLE OF INHIBITING NAV 1.7 AND/OR NAV 1.8, PROCESSES FOR THE PREPARATION THEREOF, COMPOSITIONS, USES, METHODS FOR TREATMENT USING SAME AND KITS” (EUROFARMA LABORATÓRIOS S.A., priority 2021, published 2024)

Assays:
[1] = target: human sodium channels Nav 1.8 (Homo sapiens (Human), UniProt Q9Y5Y9); assay: Automated whole-cell voltage-clamp (ScreenPatch 384P), Nav 1.8 sodium current, Protocol 2; type: cell-based; settings: Protocol 2 (holding −100 mV, inactivation step −40 mV 8 s, 0.05 Hz); CHO cells expressing human Nav 1.8; read-out: Nav1.8 IC50
Method: (§1) Biological assays were performed on Chinese hamster ovary (CHO) cells expressing the human sodium channels Nav 1.8 and Nav 1.7 stably.
(§2) The experimental voltage-clamp protocol using the whole cell configuration was established on the automated ScreenPatch® 384P platform (SP384PE, Nanion Technologies, Livingston, NJ) and recording of the results was performed with a Nanion 384-well Patch Clamp chip (NPC) (Nanion Technologies, Livingston, NJ).
(§3) Compounds of Formula (I), were diluted in eight concentrations in the extracellular solution composed of physiological saline, buffered with HEPES (mM): NaCl, 137; KCl, 4; CaCl2, 3.8; MgCl2, 1; HEPES, 10; Glucose, 10; pH 7.4. The […], 50; CsF, 90; MgCl2, 5; EGTA, 5; HEPES, 10; pH 7.2. The duration of exposure of each compound with the cells expressing Nav 1.7 or Nav 1.8 was at least five minutes and the assays were performed at room temperature.
(§4) The measurements of the sodium currents of Nav 1.8 and Nav 1.7 were obtained using the voltage protocols described below: • Protocol 1: A holding voltage of −90 mV was established followed by a voltage phase of 200 ms to −120 mV, followed by a voltage step of 10 mV for 1 second for Nav 1.8 or 0 mV for Nav 1.7, followed by a step of −100 mV for 20 ms, followed by a step of 20 ms for 10 mV for Nav 1.8 or 0 mV for Nav 1.7 (TP1A) before returning to the holding voltage of −90 mV. • Protocol 2: A holding voltage of −100 mV was established followed by an inactivation voltage step at −40 mV for 8 seconds, followed by a −100 mV step for […], followed by a 20 ms step for 10 mV for Nav 1.8 or 0 mV for Nav 1.7 (TP1A) before returning to the holding voltage of −100 mV.
(§5) Protocols were repeated at a frequency of 0.1 Hz (Protocol 1) or 0.05 Hz (Protocol 2) and current amplitude was quantified over the TP1A phase log. The variation in the peak amplitude of the current was evaluated according to the Formula described below, after exposure of the cells expressing the channels, at each concentration of the different compounds:
(§6) [formula] • where |TP1A, basal, and |TP1A, molecule represent the entry peaks of sodium currents into TP1A prior to exposure to the compound and in the presence of the compound, respectively.
(§7) The decrease in peak current amplitude, after exposure of the cells to the compounds, was used to calculate the percent relative blocking of the channels relative to the positive control according to the Formula below:
(§8) [formula] • where % V and % CP represent the averages of the values of current inhibition with a vehicle (DMSO) and positive controls, respectively. The sodium currents of the positive control were considered as 100%.
(§9) [formula] • where [Test] represents the concentration of the evaluated molecule, IC50 is the concentration of the compound that generates half of the maximum inhibition, N is the Hill's coefficient and % Block′ is the percentage of the sodium channel current (Nav 1.8 and Nav 1.7) inhibited at each concentration of the evaluated molecule. Data were obtained by non-linear least squares regression with XLfit for Excel (Microsoft, Redmond, WA).
(§10) Compounds were tested in at least one assay to obtain the IC50 value.

[2] = target: human sodium channels Nav 1.7 (Homo sapiens (Human), UniProt Q15858); assay: Automated whole-cell voltage-clamp (ScreenPatch 384P), Nav 1.7 sodium current, Protocol 2; type: cell-based; settings: Protocol 2 (holding −100 mV, inactivation step −40 mV 8 s, 0.05 Hz); CHO cells expressing human Nav 1.7; read-out: Nav1.7 IC50
Method: as §1, §2, §3, §4, §5, §6, §7, §8, §9, §10

human sodium channels Nav 1.7, sequence (Q15858 whole entry): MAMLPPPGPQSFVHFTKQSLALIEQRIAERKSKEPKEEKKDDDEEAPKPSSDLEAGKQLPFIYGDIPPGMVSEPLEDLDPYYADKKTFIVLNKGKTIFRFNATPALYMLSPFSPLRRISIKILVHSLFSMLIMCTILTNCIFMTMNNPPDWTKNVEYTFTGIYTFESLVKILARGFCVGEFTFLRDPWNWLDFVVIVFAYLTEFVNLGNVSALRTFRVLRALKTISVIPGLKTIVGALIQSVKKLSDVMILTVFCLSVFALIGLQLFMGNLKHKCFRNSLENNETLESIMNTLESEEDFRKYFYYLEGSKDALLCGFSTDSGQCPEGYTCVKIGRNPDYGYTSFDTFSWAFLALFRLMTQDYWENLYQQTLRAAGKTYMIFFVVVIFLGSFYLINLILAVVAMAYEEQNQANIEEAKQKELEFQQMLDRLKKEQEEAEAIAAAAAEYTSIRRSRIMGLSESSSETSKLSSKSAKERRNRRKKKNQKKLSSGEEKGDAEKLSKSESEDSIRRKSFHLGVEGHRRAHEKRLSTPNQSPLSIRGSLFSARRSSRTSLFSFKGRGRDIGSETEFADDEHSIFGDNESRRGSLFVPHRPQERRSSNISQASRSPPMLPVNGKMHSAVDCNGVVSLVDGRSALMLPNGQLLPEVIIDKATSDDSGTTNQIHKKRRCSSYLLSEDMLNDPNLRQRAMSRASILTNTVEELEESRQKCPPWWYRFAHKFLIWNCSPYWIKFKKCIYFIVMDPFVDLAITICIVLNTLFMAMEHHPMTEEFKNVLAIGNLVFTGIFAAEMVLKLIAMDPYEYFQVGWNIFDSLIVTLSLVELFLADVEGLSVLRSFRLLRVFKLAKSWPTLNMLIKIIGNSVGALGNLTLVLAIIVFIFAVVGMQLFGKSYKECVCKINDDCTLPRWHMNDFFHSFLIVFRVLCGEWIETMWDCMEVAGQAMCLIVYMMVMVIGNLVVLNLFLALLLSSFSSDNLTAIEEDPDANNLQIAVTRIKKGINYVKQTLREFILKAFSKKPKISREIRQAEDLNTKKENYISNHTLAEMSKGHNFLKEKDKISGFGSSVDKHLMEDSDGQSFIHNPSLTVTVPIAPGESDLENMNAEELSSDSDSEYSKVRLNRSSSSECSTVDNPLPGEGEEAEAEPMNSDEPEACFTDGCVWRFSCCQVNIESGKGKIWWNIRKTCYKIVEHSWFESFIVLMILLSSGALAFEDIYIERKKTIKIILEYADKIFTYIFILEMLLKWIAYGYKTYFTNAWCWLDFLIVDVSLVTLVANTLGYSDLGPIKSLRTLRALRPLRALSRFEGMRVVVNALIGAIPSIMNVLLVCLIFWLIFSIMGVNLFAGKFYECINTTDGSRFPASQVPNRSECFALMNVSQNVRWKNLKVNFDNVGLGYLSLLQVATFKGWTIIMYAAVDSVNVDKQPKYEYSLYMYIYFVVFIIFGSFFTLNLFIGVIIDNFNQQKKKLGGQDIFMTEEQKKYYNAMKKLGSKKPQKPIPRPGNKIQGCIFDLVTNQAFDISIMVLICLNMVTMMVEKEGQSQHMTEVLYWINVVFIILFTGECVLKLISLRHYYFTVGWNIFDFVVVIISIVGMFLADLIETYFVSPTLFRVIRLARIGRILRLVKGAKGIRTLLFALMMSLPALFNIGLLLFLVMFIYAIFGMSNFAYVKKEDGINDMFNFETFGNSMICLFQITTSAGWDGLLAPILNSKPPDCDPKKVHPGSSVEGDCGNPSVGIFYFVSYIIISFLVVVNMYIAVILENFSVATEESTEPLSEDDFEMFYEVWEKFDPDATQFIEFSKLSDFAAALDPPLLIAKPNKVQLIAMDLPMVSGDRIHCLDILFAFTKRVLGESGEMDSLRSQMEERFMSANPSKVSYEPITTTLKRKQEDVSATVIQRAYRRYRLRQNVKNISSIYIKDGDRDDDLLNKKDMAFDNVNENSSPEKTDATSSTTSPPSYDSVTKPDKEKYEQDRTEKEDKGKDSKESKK
human sodium channels Nav 1.8, sequence (Q9Y5Y9 whole entry): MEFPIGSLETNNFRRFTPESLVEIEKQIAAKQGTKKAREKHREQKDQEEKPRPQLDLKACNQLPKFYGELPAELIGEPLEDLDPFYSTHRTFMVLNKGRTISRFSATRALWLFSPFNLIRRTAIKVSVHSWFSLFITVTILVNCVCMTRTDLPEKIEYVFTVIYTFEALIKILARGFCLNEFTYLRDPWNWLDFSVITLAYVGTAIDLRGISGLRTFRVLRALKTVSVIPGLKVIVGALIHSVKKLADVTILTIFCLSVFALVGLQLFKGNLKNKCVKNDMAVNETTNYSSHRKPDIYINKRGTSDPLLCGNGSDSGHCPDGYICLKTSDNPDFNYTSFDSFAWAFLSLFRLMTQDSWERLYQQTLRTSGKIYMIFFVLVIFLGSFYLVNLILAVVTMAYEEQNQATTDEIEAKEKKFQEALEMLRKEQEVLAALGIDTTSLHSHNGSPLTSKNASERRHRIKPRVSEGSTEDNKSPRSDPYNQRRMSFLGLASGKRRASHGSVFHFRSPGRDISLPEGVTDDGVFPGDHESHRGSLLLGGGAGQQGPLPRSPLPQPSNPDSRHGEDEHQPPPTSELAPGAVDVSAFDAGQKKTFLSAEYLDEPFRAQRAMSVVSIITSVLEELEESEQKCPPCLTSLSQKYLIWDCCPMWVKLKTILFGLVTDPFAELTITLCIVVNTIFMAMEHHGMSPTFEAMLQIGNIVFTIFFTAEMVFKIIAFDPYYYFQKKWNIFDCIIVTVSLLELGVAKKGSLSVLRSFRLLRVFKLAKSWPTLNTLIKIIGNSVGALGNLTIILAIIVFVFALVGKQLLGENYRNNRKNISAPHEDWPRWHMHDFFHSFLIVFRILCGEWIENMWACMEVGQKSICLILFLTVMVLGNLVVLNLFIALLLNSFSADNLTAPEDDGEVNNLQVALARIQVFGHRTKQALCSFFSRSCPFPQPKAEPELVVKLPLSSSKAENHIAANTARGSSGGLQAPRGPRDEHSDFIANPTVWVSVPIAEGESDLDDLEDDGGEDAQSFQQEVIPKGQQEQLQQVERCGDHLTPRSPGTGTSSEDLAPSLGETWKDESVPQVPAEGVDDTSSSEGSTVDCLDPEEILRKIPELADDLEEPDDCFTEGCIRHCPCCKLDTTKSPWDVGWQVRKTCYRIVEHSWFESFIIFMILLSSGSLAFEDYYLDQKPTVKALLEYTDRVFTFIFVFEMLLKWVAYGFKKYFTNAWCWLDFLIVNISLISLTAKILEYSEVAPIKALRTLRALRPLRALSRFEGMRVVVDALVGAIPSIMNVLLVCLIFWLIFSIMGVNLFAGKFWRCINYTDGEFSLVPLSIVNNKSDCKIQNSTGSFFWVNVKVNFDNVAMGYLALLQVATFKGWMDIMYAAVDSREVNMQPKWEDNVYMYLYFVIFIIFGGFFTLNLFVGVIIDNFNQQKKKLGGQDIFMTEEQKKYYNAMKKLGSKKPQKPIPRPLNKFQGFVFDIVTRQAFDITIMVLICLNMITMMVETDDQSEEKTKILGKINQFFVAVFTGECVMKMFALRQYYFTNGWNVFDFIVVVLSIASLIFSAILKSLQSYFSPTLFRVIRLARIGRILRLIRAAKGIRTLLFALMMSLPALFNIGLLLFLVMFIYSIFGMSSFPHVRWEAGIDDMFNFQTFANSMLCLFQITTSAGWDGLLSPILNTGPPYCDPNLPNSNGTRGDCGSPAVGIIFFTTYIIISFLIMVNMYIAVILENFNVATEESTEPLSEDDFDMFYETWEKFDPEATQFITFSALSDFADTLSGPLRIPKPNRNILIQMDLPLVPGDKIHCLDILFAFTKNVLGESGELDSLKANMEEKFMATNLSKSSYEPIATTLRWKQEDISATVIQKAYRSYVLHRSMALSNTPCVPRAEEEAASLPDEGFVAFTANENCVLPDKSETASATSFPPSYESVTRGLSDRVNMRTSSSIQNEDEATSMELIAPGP

IC50 [1] [nM]	IC50 [2] [nM]	SMILES
> 1000	> 10000	COc1cc(/C=N/NC(=O)c2ccnc(-c3ccc(OC4CCCC4)cc3)c2)cc(OC)c1 [Compound 39, (E)-2-(4-(cyclopentyloxy)phenyl)-N′-(3,5-dimethoxybenzylidene) isonicotinohydrazide]
140	123	COc1cc(/C=N/NC(=O)c2cccc(-c3ccc(OC(F)(F)F)cc3)n2)cc(OC)c1 [Compound 40, (E)-N′-(3,5-dimethoxybenzylidene)-6-(4-(trifluoromethoxy)phenyl) picolinohydrazide]
313	137	COc1cc(/C=N/NC(=O)c2ccnc(-c3ccc(OC(C)C)cc3)n2)cc(OC)c1 [Compound 54, (E)-N′-(3,5-dimethoxybenzylidene)-2-(4-isopropoxyphenyl)pyrimidine-4-carbohydrazide]
5040	5150	COc1cc(/C=N/NC(=O)c2nccc(-c3ccc(Cl)cc3)n2)cc(OC)c1 [Compound 60, (E)-4-(4-chlorophenyl)-N′-(3,5-dimethoxybenzylidene)pyrimidine-2-carbohydrazide]
183	651	CCOc1ccc(-c2ccnc(C(=O)N/N=C/c3cc(OC)cc(OC)c3)n2)cc1 [Compound 61, (E)-N′-(3,5-dimethoxybenzylidene)-4-(4-ethoxyphenyl)pyrimidine-2-carbohydrazide]
462	302	COc1cc(/C=N/NC(=O)c2nccc(-c3ccc(OC(C)C)cc3)n2)cc(OC)c1 [Compound 62, (E)-N′-(3,5-dimethoxybenzylidene)-4-(4-isopropoxyphenyl)pyrimidine-2-carbohydrazide]
> 1000	306	COc1cc(/C=N/NC(=O)c2nccc(-c3ccc(OC4CCCC4)cc3)n2)cc(OC)c1 [Compound 63, (E)-4-(4-(cyclopentyloxy)phenyl)-N′-(3,5-dimethoxybenzylidene)pyrimidine-2-carbohydrazide]
384	173	COc1cc(/C=N/NC(=O)c2nccc(-c3ccc(OC(F)(F)F)cc3)n2)cc(OC)c1 [Compound 64, (E)-N′-(3,5-dimethoxybenzylidene)-4-(4-(trifluoromethoxy)phenyl) pyrimidine-2-carbohydrazide]
> 1000	6440	COc1ccc(-c2ccnc(C(=O)N/N=C/c3cc(OC)cc(OC)c3)n2)cc1 [Compound 65, (E)-N′-(3,5-dimethoxybenzylidene)-4-(4-methoxyphenyl)pyrimidine-2-carbohydrazide]
> 1000	569	CCCOc1ccc(-c2ccnc(C(=O)N/N=C/c3cc(OC)cc(OC)c3)n2)cc1 [Compound 66, (E)-N′-(3,5-dimethoxybenzylidene)-4-(4-propoxyphenyl)pyrimidine-2-carbohydrazide]
636	> 10000	CCOc1ccc(-c2cc(F)cc(C(=O)N/N=C/c3cc(OC)cc(OC)c3)n2)cc1 [Compound 68, (E)-N′-(3,5-dimethoxybenzylidene)-6-(4-ethoxyphenyl)-4-fluoropicolinohydrazide]
> 1000	> 10000	CCOc1ccc(-c2cc(C(F)(F)F)cc(C(=O)N/N=C/c3cc(OC)cc(OC)c3)n2)cc1 [Compound 69]
> 1000	> 10000	COc1ccc(-c2ccc(C(=O)N/N=C/c3cc(OC)cc(OC)c3)o2)cc1 [Compound 71, (E)-N′-(3,5-dimethoxybenzylidene)-5-(4-methoxyphenyl) furan-2-carbohydrazide]
> 1000	> 10000	COc1ccc(-c2ccc(C(=O)N/N=C/c3cc(OC)cc(OC)c3)s2)cc1 [Compound 72, (E)-N′-(3,5-dimethoxybenzylidene)-5-(4-methoxyphenyl)thiophene-2-carbohydrazide]
> 1000	> 10000	COc1ccc(-c2ncc(C(=O)N/N=C/c3cc(OC)cc(OC)c3)o2)cc1 [Compound 73, (E)-N′-(3,5-dimethoxybenzylidene)-2-(4-methoxyphenyl) oxazole-5-carbohydrazide]
> 1000	> 10000	COc1ccc(-c2nc(C(=O)N/N=C/c3cc(OC)cc(OC)c3)co2)cc1 [Compound 74, (E)-N′-(3,5-dimethoxybenzylidene)-2-(4-methoxyphenol) oxazole-4-carbohydrazide]
> 1000	> 10000	COc1ccc(-c2noc(C(=O)N/N=C/c3cc(OC)cc(OC)c3)n2)cc1 [Compound 75, (E)-N′-(3,5-dimethoxybenzylidene)-3-(4-methoxyphenol)-1,2,4-oxadiazole-5-carbohydrazide]
> 1000	> 10000	COc1ccc(-c2nc(C(=O)N/N=C/c3cc(OC)cc(OC)c3)cs2)cc1 [Compound 76, (E)-N′-(3,5-dimethoxybenzylidene)-2-(4-methoxyphenyl) thiazole-4-carbohydrazide]

SMILES	IC50 [1] [nM]	IC50 [2] [nM]
CCCCOc1ccc(-c2cc(C(=O)N/N=C/c3cc(OC)cc(OC)c3)ccn2)cc1 [Compound 38, (E)-2-(4-butoxyphenyl)-N′-(3,5-dimethoxybenzylidene) isonicotinohydrazide]	> 1000	> 10000
CCCCOc1ccc(-c2cccc(C(=O)N/N=C/c3cc(OC)cc(OC)c3)n2)cc1 [Compound 41, (E)-6-(4-butoxyphenyl)-N′-(3,5-dimethoxybenzylidene) picolinohydrazide]	> 1000	1200
